Results: US11076596B2, “Substituted trifluoromethyloxadiazoles for combating phytopathogenic fungi” (BASF SE, priority 2017, dated 2021)

melting point: 175 °C
Compound: CO/N=C1\CCCC1NC(=O)c1ccc(-c2noc(C(F)(F)F)n2)cc1 (stereo not shown) [Ex-1, N-[(2E)-2-methoxyiminocyclopentyl]-4-[5-(trifluoromethyl)-1,2,4-oxadiazol-3-yl]benzamide]
